From patent US9649295B2, “Chemical inhibitors of soluble adenylyl cyclase (sAC)” (Cornell Research Foundation, Inc., priority 2004, dated 2017)
pIC50: −log10 of the molar value. Entries after “also recorded” stand apart in the source; their conditions may differ. Where no end group is shown, it is not given here.

Assays:
[1] = system: INS-1E cells; assay: insulin release in INS-1E cells; type: cell-based; conditions: for insulin release in low glucose: 2.5 mM glucose, 10 nM glucagon; for effect on glucose-stimulated insulin secretion (GSIS): 30 μM KH7, 30 μM KH7.15, 50 μM 2-hydroxyestradiol, 50 μM 2′5′ddAdo
Method: (§1) Briefly, cells (passage 140-150) were plated at 2.5×10^5 cells/well in a 24 well plate and permitted to recover for two days. Cells were glucose starved by incubation for 1 hour in the presence of 2.5 mM glucose KRB medium supplemented with 2 mM sodium bicarbonate, 10 mM Hepes, and 0.1% BSA. After washing, cells were incubated in KRB with either 2.5 mM or 16 mM glucose in the presence of either vehicle control (DMSO or MeOH) or indicated drug. After the indicated time, removed media was cleared of cell debris and secreted insulin was measured by Insulin ELISA kit (Linco Research, St. Charles, Mo., or ALPCO, Windham, N.H.). If cAMP was to be concomitantly measured, cells were pre-treated with IBMX for the final 10 minutes of the glucose starvation and IBMX was included in all subsequent incubations. For the washout experiment, subsequent to initial insulin determination, cells treated with KH7 were placed in fresh KRB (2.5 mM glucose) for an additional hour and insulin release was measured as above in the absence of any added drug. For transferrin recycling, loading of cells with I^125 transferrin was performed during hour incubation in 2.5 mM glucose KRB.

[2] = system: cAMP in INS-1E cells; assay: intracellular cAMP in INS-1E cells; type: cell-based; conditions: for cAMP generation in low glucose: 2.5 mM glucose, 15 minutes, 10 nM glucagon; for effect on cAMP induced by high glucose: 16 mM glucose, 30 μM KH7, 30 μM KH7.15, 50 μM 2-hydroxyestradiol, 50 μM 2′5′ddAdo
Method: as §1

[3] = system: Plasmodium falciparum; assay: Plasmodium falciparum viability, luciferase assay; type: cell-based
Method: . Plasmodium cultures were incubated in the indicated concentrations of KH7 or KH7.15 for 24 hours and viability assessed by luciferase assay (FIG. 16A). […].
Therefore, the effect of sAC inhibitors on P. falciparum viability was tested. […].

[4] = system: PfAC; assay: adenylyl cyclase activity in whole cell extract of isolated parasites; type: biochemical, Plasmodium falciparum
[5] = system: tmACs; assay: adenylyl cyclase activity in forskolin stimulated INS-1E cell lysate; conditions: forskolin (10 μM) stimulated INS-1E
Method: (§2) In vitro adenylyl cyclase assays were performed on purified recombinant human sACt protein as previously described in Litvin et al., “Kinetic Properties of “Soluble” Adenylyl Cyclase.

[6] = target: T1, purified recombinant human sACt protein (Homo sapiens, UniProt Q96PN6); assay: in vitro adenylyl cyclase assay on purified recombinant human sACt protein
T1 sequence (Q96PN6 1-469 limits assumed): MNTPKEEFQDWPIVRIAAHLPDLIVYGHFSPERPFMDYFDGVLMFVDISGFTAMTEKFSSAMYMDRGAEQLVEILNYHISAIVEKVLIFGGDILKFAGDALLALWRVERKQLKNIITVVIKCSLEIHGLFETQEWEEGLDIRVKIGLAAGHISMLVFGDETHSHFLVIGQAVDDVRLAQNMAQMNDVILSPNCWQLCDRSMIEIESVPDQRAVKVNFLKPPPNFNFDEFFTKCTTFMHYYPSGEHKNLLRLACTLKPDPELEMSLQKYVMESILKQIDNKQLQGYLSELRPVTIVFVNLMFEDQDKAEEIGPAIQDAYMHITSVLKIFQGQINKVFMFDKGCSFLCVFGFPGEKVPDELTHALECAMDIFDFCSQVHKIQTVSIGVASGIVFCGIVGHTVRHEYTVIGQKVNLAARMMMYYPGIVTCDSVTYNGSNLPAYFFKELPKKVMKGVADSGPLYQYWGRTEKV
Method: as §2

[7] = target: T2, purified sperm isoform of sAC protein (pure sAC) (Homo sapiens, UniProt Q96PN6); assay: in vitro cyclase activity of purified sAC protein (Table 1); type: biochemical; conditions: for IC50: μM; for pIC50: unit inferred
T2 construct: generated against human 48-kD isoform of sAC (sACt) antigen; made in house
T2 sequence (Q96PN6 1-469 limits assumed): T1 sequence (Q96PN6 1-469 limits assumed)

[8] = target: T3, sAC (Homo sapiens, UniProt Q96PN6); assay: cAMP forming activity inside cells stably overexpressing sAC; type: cell-based; conditions: read-out: in vivo IC50 sAC (basal)
T3 construct: expressed in transfected cells

[9] = system: tmACs; assay: cAMP forming activity inside cells stimulated with forskolin; type: cell-based; conditions: read-out: in vivo IC50 tmAC (FSK)
[10] = target: T4, purified solubilized version of Type VII tmAC (sol.AC7) (Homo sapiens, UniProt P51828); assay: in vitro cyclase activity of purified solubilized Type VII tmAC; type: biochemical; conditions: read-out: in vitro IC50 pure sol.AC7
T4 construct: a mixture of purified catalytic domains, C1 and C2, from Type VII tmAC; made in house

[11] = target: T5, sperm sAC (sAC in extracts) (UniProt Q96PN6); assay: in vitro cyclase activity in whole cell extracts from cells overexpressing sperm sAC cDNA; type: biochemical; conditions: unit inferred
T5 construct: whole cell extracts from cells overexpressing sperm sAC cDNA (sAC in extracts)

[12] = target: T6, Type II tmAC (tmAC in extracts) (Homo sapiens, UniProt Q08462); assay: in vitro cyclase activity in extracts of cells overexpressing Type II tmAC; type: biochemical; conditions: unit inferred
T6 construct: expressed in transfected cells

[13] = system: INS-1E cells; assay: transferrin recycling in INS-1E cells; type: cell-based; conditions: 30 minutes, KH7 30 μM
Method: as §1

[14] = system: primary mouse islets; assay: insulin release from isolated mouse islets; type: cell-based; conditions: 16.7 mM glucose, 30 minutes, 30 μM KH7
Method: After several washes with Hank's Balanced Salt Solution, islets were hand-picked and 15-20 islets were distributed into each well of a 12 well plate to adhere overnight in RPMI-1640 media supplemented with 10 mM HEPES, 5.6 mM glucose, 10% FBS, 2 mM L-glutamine, 1 mM sodium pyruvate, and antibiotics.
Insulin release from isolated islets was performed in 12 well plates. Islets were preincubated in KRB (2.8 mM glucose) for 1 hour followed by incubation for 30 minutes in 2.8 mM glucose KRB in the presence of drug. The same wells were then incubated for an additional 30 minutes in 16.7 mM glucose KRB in the presence of the same drugs. Media was removed, cleared of cells, and insulin was measured.

[15] = system: CREB phosphorylation in isolated nuclei; assay: CREB phosphorylation in isolated HeLa nuclei (P2), Western analysis; type: biochemical; conditions: for relative intensity of phospho-CREB band normalized to basal: basal 1 U, 1 mM 8-Br cAMP, 40 mM bicarbonate alone or plus 10 μM H-89 or 1 mM 8-Br-RpcAMPs
Method: The resuspended pellet and 60% OptiPrep iodixanol were mixed (30% OptiPrep final) and centrifuged at 10,000 g for 20 min. The supernatant was removed and the nuclei-enriched pellet (P2) was resuspended in TM-2 buffer without detergent.
Reactions were stopped by the addition of 20 μl of SDS sample buffer (CREB phosphorylation) or by being placed into a 100° C. heat block for 3 min (adenylyl cyclase).
For whole cell and isolated nuclei CREB phosphorylation assays, equal cell or nuclear equivalents were separated under reducing conditions using a 10% SDS-PAGE, transferred to a PVDF membrane, and probed for CREB (rabbit polyclonal antiserum; Chemicon, Temecula, Calif.) and phosphorylated CREB (rabbit polyclonal antiserum; Upstate Biotechnology, Temecula, Calif.). HRP-conjugated secondary antibodies were used, and bands were visualized using ECL. Image analysis software (model Fluorchem 8800; Alpha Innotech, San Leandro, Calif.) was used to quantitate Western results. Intensities of phospho-CREB bands were normalized to total CREB.

[16] = system: CREB phosphorylation in isolated nuclei; assay: phospho-CREB immunocytochemistry of isolated nuclei; type: biochemical; conditions: 10 min; 40 mM sodium bicarbonate, 1 mM 8-Br cAMP, 10 μM forskolin
Method: Cell Signaling Technologies) overnight at 4° C. Staining was visualized by incubation with goat anti-rabbit Alexa Fluor 488 (Molecular Probes) for 1 h at room temperature, treated with DAPI for 5 min, and washed and mounted with gelvatol/DABCO (Sigma-Aldrich). Fluorescent images were recorded by a digital camera (Hamamatsu, Bridgewater, N.J.) connected to an inverted epifluorescent microscope (Nikon, Melville, N.Y.). Images were taken at the same exposure time and gain, and all photographic manipulations were performed equally. Phospho-CREB-positive nuclei were quantified in multiple fields from each stained slide by a blinded experimenter. […] Nuclei were also treated with DAPI to differentiate intact nuclei from membrane ghosts. DAPI-positive nuclei were scored for phosho-CREB immunofluorescence. Nuclei with detectable staining (FIG. 6A, NaHCO3) were considered positive for CREB phosphorylation, whereas nuclei with no detectable staining (FIG. 6A, Basal) were counted as negative. Multiple microscopic fields were photographed for each condition, and data was combined from three to five separate experiments.

T4 sequence (P51828 279-406 limits assumed): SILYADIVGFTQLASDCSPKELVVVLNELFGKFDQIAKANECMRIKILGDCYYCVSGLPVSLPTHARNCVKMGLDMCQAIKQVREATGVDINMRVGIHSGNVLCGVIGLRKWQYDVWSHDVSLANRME
T4 sequence (P51828 879-1023 limits assumed): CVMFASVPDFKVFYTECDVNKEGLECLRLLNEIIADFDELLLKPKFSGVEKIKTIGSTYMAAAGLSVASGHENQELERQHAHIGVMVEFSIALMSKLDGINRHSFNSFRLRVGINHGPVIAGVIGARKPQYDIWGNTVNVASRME
T6 sequence (Q08462 whole entry): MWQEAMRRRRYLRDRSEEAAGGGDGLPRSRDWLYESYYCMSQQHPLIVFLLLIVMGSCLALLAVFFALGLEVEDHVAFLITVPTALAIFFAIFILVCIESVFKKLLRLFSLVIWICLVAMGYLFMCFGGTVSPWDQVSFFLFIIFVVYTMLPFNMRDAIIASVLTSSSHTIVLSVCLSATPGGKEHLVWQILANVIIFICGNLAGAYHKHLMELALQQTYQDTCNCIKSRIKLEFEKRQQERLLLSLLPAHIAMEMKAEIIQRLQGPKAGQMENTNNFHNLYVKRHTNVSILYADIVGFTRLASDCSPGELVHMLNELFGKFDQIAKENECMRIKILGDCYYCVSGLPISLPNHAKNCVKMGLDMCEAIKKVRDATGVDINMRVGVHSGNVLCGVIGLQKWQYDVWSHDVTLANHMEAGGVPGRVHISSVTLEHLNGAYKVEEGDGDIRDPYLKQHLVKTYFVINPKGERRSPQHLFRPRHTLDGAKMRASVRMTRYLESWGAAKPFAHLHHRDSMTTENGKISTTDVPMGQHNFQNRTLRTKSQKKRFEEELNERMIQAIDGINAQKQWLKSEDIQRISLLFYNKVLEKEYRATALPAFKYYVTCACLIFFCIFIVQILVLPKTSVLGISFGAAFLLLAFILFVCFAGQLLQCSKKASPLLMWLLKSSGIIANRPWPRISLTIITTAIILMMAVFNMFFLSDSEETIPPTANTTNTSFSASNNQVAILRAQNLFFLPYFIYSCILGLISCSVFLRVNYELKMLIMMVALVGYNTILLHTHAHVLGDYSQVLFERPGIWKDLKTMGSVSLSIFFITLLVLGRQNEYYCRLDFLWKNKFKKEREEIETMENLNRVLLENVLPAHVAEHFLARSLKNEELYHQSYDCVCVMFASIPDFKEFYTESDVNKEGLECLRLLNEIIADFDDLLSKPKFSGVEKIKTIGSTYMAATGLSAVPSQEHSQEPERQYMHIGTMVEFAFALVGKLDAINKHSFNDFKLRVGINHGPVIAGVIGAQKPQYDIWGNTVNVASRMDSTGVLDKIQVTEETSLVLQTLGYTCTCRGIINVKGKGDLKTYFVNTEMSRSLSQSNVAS
T3 sequence (Q96PN6 whole entry, species assumed): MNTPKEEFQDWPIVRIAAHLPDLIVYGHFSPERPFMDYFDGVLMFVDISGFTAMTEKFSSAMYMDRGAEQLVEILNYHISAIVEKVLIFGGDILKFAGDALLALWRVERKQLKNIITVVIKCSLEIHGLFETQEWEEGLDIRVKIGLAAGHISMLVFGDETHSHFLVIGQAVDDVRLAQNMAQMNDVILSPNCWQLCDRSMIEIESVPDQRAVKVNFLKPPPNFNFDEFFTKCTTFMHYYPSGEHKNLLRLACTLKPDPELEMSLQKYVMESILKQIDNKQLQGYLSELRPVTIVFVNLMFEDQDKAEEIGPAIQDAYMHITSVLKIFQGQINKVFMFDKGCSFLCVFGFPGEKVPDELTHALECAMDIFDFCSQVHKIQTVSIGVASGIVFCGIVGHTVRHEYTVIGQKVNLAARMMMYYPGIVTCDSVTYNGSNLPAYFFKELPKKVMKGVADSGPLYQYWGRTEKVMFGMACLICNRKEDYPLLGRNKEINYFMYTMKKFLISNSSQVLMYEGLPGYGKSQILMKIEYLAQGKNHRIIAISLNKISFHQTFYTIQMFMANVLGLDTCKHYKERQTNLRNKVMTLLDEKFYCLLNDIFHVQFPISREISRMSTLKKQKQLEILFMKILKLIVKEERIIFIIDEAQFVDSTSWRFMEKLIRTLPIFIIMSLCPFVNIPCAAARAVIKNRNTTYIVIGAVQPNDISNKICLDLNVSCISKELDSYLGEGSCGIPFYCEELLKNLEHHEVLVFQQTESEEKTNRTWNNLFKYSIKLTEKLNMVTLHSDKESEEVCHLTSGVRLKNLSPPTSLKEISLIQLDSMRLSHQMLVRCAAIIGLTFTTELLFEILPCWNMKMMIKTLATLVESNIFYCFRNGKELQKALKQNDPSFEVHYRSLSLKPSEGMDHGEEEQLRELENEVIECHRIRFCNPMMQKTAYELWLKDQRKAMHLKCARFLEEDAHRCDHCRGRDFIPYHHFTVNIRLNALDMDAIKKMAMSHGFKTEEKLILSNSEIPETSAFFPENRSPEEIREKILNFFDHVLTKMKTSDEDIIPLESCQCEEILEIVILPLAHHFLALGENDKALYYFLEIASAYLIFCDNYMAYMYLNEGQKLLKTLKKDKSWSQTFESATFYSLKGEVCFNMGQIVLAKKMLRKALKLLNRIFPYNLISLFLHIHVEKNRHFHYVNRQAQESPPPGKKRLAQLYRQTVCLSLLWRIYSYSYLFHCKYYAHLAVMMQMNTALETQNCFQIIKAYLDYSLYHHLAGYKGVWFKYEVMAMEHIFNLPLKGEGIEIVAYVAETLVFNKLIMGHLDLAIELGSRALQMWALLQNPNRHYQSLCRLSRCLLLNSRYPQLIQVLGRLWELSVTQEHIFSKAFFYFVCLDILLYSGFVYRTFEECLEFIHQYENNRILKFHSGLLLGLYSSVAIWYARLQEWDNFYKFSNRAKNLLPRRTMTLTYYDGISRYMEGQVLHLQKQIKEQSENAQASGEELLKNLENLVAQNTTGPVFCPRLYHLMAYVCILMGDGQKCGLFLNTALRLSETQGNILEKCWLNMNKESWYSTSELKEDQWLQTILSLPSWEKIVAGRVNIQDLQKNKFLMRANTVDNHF

glucagon: hormone stimulating tmACs [reference compound]
insulin release in low glucose ([1]; 15 minutes): no significant increase in insulin release | cAMP generation in low glucose [2]: three fold increase in cAMP generation

COc1cc(/C=N/NC(=O)CSc2nc3ccccc3[nH]2)ccc1O [KH7.15]
effect on glucose-stimulated insulin secretion (GSIS) ([1]; 16 mM glucose): did not affect insulin secretion | effect on cAMP induced by high glucose [2]: not | dose required to kill parasites [3]: ≥ 100 µM | lower affinity for killing P. falciparum relative to KH7 [3]: 10 fold | dose required to inhibit PfAC activity [4]: ≥ 100 µM | lower affinity for inhibiting PfAC activity relative to KH7 [4]: 10 fold | effect on tmACs [5]: inert | effect on cyclase activity of purified sAC ([6]; bicarbonate (40 mM) and calcium (0.5 mM)): inert

O=C(CSc1nc2ccccc2[nH]1)N/N=C/c1cc(Br)ccc1O [KH7.07]
IC50 [7]: 30 µM | pIC50 [8]: 4.52 | pIC50 [9]: < 3.70

CCCCOc1ccc(C2=N/C(=C\C(Br)=C\c3ccccc3)C(=O)O2)cc1 [KH1]
IC50 [7]: 23 µM | pIC50 [10]: < 3.70 | pIC50 [8]: < 3.30 | pIC50 [9]: < 3.30

CC(C)Cn1c(=O)n(C)c(=O)c2[nH]cnc21 [IBMX, reference compound]
restoration of GSIS in the presence of KH7 ([1]; 0.5 mM IBMX, 30 μM KH7): did not restore GSIS in the presence of KH7 inhibition | enhancement of GSIS ([1]; 0.5 mM IBMX, 16 mM glucose, 15 minutes): at least 2 fold

O=C(CSc1nc2ccccc2[nH]1)N/N=C/c1c(F)cccc1Cl [KH7.06]
pIC50 [7]: ~4.52

CCn1c(SCC(=O)N/N=C/c2cc(Br)ccc2O)nc2ccccc21 [KH7.13]
pIC50 [7]: 4.12

COc1ccc(/C=C2\C(=O)N(c3nc(-c4ccc(Cl)cc4)cs3)N=C2c2ccccc2)cc1OC [KH2]
IC50 [7]: 2 µM | pIC50 [10]: < 3.40 | pIC50 [11]: < 4.00 | pIC50 [12]: < 4.00 | pIC50 [8]: < 3.30 | pIC50 [9]: < 3.30

Cc1ccccc1N1C(=O)/C(=C/c2ccc(-c3ccc(Cl)c(Cl)c3)o2)C=C1c1ccccc1 [KH4]
IC50 [7]: 6 µM | pIC50 [10]: < 4.57 | pIC50 [11]: < 4.00 | pIC50 [12]: < 4.00 | pIC50 [8]: < 3.30 | pIC50 [9]: < 3.30

C[C@]12CC[C@@H]3c4cc(O)c(O)cc4CC[C@H]3[C@@H]1CC[C@@H]2O [2-hydroxyestradiol, reference compound]
effect on glucose-stimulated insulin secretion (GSIS) ([1]; 16 mM glucose): completely inhibited GSIS | effect on cAMP induced by high glucose [2]: blocked the cAMP induced by the presence of high glucose | effect on transferrin recycling [13]: unaffected | effect on insulin release induced by high glucose in islets [14]: inhibited insulin release induced by high glucose

Nc1ncnc2c1nc(Br)n2[C@@H]1O[C@@H]2COP(=O)(O)O[C@H]2[C@H]1O [8-Br-cAMP]
relative intensity of phospho-CREB band normalized to basal [15]: 30 U | increase in CREB phosphorylation ([15]; isolated nuclei, Western): 30 fold | percentage of phospho-CREB-positive nuclei relative to basal [16]: at least a twofold rise

Cc1ccc(C)c(N2C(=O)/C(=C/c3ccc(Cl)cc3)C=C2c2ccccc2)c1 [KH3]
IC50 [7]: 8 µM | pIC50 [10]: < 3.30 | pIC50 [11]: < 4.00 | pIC50 [12]: < 4.00 | pIC50 [8]: < 3.30 | pIC50 [9]: < 3.30

Nc1ncnc2c1ncn2[C@@H]1O[C@@H]2CO[P@@](O)(=S)O[C@H]2[C@H]1O [RpcAMPs]
relative intensity of phospho-CREB band normalized to basal [15]: 8 U | reduction of CREB phosphorylation induced by bicarbonate ([15]; isolated nuclei, 40 mM bicarbonate): 70%

GLP-1: hormone stimulating tmACs (HAEGTFTSDVSSYLEGQAAKEFIAWLVKGR; ends and bridges not checked; UniProt P01275 98-127, looked up) [reference compound]
insulin release in low glucose ([1]; 15 minutes): no significant increase in insulin release | cAMP generation in low glucose [2]: three fold increase in cAMP generation

Cc1ccsc1/C=N/NC(=O)CSc1nc2ccccc2n1Cc1ccccc1 [KH7.10]
pIC50 [7]: 4.10

COc1ccc(Br)cc1/C=N/NC(=O)CSc1nc2ccccc2[nH]1 [KH7.05]
pIC50 [7]: ~4.52 | pIC50 [8]: 4.52 | pIC50 [9]: < 3.70

C[C@H]1O[C@@H](n2cnc3c(N)ncnc32)C[C@@H]1O [2′5′ddAdo, 2′5′ dideoxyadenosine]
effect on cAMP induced by high glucose [2]: partially decreased glucose-induced cAMP generation | effect on tmACs [5]: potent inhibitor of tmACs | effect on sAC ([6]; bicarbonate/calcium stimulated pure sAC, concentrations up to 300 μM): did not significantly affect sAC; also recorded: inert towards sAC
